# Laboratory results taken from ChEMBL document CHEMBL3885861, “Open TG-GATES”.
# Species: Rattus norvegicus
# Assay: Open TG-GATES - Regimen: Daily Repeat
# Type: toxicity, organism-based, Sprague-Dawley
# Parameters: regimen Daily Repeat, gender Male, age 6 weeks
# Conditions: in vivo, po, 200 mg/kg, route gavage, dose level High; for APTT / Bas / Eos / Fbg / Hb / Ht / Lym / MCH / MCHC / MCV / Mono / Neu / PT / Plat / RBC / Ret / WBC: tissue Blood; for KIDNEY_L / KIDNEY_R / KIDNEY_TOTAL: tissue Kidney; for LIVER: tissue Liver; for ALP / BUN / CRE / Ca / DBIL / GLC / K / LDH / Na / PL / RALB / TBIL / TC / TG / TP / gamma-GTP / ALT / AST: tissue Plasma
smiles,measurement,setting,value
CCCCc1oc2ccccc2c1C(=O)c1cc(I)c(OCCN(CC)CC)c(I)c1 [AMIODARONE],APTT,"72 h, time 3 day",27.3 s
same,Bas,"72 h, time 3 day",0%
same,Eos,"72 h, time 3 day",1.2%
same,Fbg,"72 h, time 3 day",214.6 mg/dL
same,Hb,"72 h, time 3 day",14.1 g/dL
same,Ht,"72 h, time 3 day",40.9%
same,Lym,"72 h, time 3 day",84.6%
same,MCH,"72 h, time 3 day",20.9 pg
same,MCHC,"72 h, time 3 day",34.4%
same,MCV,"72 h, time 3 day",60.8 fL
same,Mono,"72 h, time 3 day",3.2%
same,Neu,"72 h, time 3 day",9.2%
same,PT,"72 h, time 3 day",15.9 s
same,Plat,"72 h, time 3 day",122.1 x10_4/uL
same,RBC,"72 h, time 3 day",672.8 x10_4/ul
same,Ret,"72 h, time 3 day",3.5%
same,WBC,"72 h, time 3 day",70.5 x10_2/uL
same,KIDNEY_L,"72 h, time 3 day",0.9 g
same,KIDNEY_R,"72 h, time 3 day",0.9 g
same,KIDNEY_TOTAL,"72 h, time 3 day",1.8 g
same,LIVER,"72 h, time 3 day",9 g
same,ALP,"72 h, time 3 day",1623.2 IU/L
same,BUN,"72 h, time 3 day",14.2 mg/dL
same,CRE,"72 h, time 3 day",0.3 mg/dL
same,Ca,"72 h, time 3 day",10 mg/dL
same,DBIL,"72 h, time 3 day",0.062 mg/dL
same,GLC,"72 h, time 3 day",193.2 mg/dL
same,K,"72 h, time 3 day",3.6 meq/L
same,LDH,"72 h, time 3 day",222.2 IU/L
same,Na,"72 h, time 3 day",140.2 meq/L
same,PL,"72 h, time 3 day",181.6 mg/dL
same,RALB,"72 h, time 3 day",3.4 g/dL
same,TBIL,"72 h, time 3 day",0.1 mg/dL
same,TC,"72 h, time 3 day",135 mg/dL
same,TG,"72 h, time 3 day",33.2 mg/dL
same,TP,"72 h, time 3 day",5.7 g/dL
same,gamma-GTP,"72 h, time 3 day",0.8 IU/L
same,TERMINAL_BW,"[…], time 7 day",210.1 g
same,TERMINAL_BW,"[…], time 14 day",194.8 g
same,TERMINAL_BW,"[…], time 28 day",228 g
same,APTT,"[…], time 7 day",33.7 s
same,Bas,"[…], time 7 day",0%
same,Eos,"[…], time 7 day",0.8%
same,Fbg,"[…], time 7 day",202.2 mg/dL
same,Hb,"[…], time 7 day",14.6 g/dL
same,Ht,"[…], time 7 day",41.9%
same,Lym,"[…], time 7 day",82.8%
same,MCH,"[…], time 7 day",21.2 pg
same,MCHC,"[…], time 7 day",34.9%
same,MCV,"[…], time 7 day",60.7 fL
same,Mono,"[…], time 7 day",2.6%
same,Neu,"[…], time 7 day",13.2%
same,PT,"[…], time 7 day",17.5 s
same,Plat,"[…], time 7 day",127 x10_4/uL
same,RBC,"[…], time 7 day",690.2 x10_4/ul
same,Ret,"[…], time 7 day",1.4%
same,WBC,"[…], time 7 day",119 x10_2/uL
same,APTT,"[…], time 14 day",26.9 s
same,Bas,"[…], time 14 day",0%
same,Eos,"[…], time 14 day",0.8%
same,Fbg,"[…], time 14 day",180.2 mg/dL
same,Hb,"[…], time 14 day",16 g/dL
same,Ht,"[…], time 14 day",44.7%
same,Lym,"[…], time 14 day",68%
same,MCH,"[…], time 14 day",20 pg
same,MCHC,"[…], time 14 day",35.9%
same,MCV,"[…], time 14 day",55.6 fL
same,Mono,"[…], time 14 day",1.6%
same,Neu,"[…], time 14 day",29.6%
same,PT,"[…], time 14 day",15 s
same,Plat,"[…], time 14 day",109.5 x10_4/uL
same,RBC,"[…], time 14 day",803.6 x10_4/ul
same,Ret,"[…], time 14 day",0.8%
same,WBC,"[…], time 14 day",77.9 x10_2/uL
same,APTT,"[…], time 28 day",27.4 s
same,Bas,"[…], time 28 day",0%
same,Eos,"[…], time 28 day",0.8%
same,Fbg,"[…], time 28 day",215.8 mg/dL
same,Hb,"[…], time 28 day",15.6 g/dL
same,Ht,"[…], time 28 day",42.8%
same,Lym,"[…], time 28 day",64%
same,MCH,"[…], time 28 day",19 pg
same,MCHC,"[…], time 28 day",36.4%
same,MCV,"[…], time 28 day",52.2 fL
same,Mono,"[…], time 28 day",2%
same,Neu,"[…], time 28 day",32%
same,PT,"[…], time 28 day",17 s
same,Plat,"[…], time 28 day",159.1 x10_4/uL
same,RBC,"[…], time 28 day",819 x10_4/ul
same,Ret,"[…], time 28 day",2.1%
same,WBC,"[…], time 28 day",96 x10_2/uL
same,KIDNEY_L,"[…], time 7 day",0.9 g
same,KIDNEY_R,"[…], time 7 day",0.9 g
same,KIDNEY_TOTAL,"[…], time 7 day",1.9 g
same,KIDNEY_L,"[…], time 14 day",0.9 g
same,KIDNEY_R,"[…], time 14 day",0.9 g
same,KIDNEY_TOTAL,"[…], time 14 day",1.7 g
same,KIDNEY_L,"[…], time 28 day",0.9 g
same,KIDNEY_R,"[…], time 28 day",1 g
same,KIDNEY_TOTAL,"[…], time 28 day",1.9 g
same,LIVER,"[…], time 7 day",9.6 g
same,LIVER,"[…], time 14 day",9.1 g
same,ALP,"[…], time 7 day",1316.2 IU/L
same,ALT,"[…], time 7 day",31 IU/L
same,AST,"[…], time 7 day",56.4 IU/L
same,BUN,"[…], time 7 day",13.6 mg/dL
same,CRE,"[…], time 7 day",0.4 mg/dL
same,Ca,"[…], time 7 day",10 mg/dL
same,DBIL,"[…], time 7 day",0.068 mg/dL
same,GLC,"[…], time 7 day",184.4 mg/dL
same,K,"[…], time 7 day",4 meq/L
same,LDH,"[…], time 7 day",215.6 IU/L
same,Na,"[…], time 7 day",139.2 meq/L
same,PL,"[…], time 7 day",182.8 mg/dL
same,RALB,"[…], time 7 day",3.4 g/dL
same,TBIL,"[…], time 7 day",0.1 mg/dL
same,TC,"[…], time 7 day",144.8 mg/dL
same,TG,"[…], time 7 day",24.6 mg/dL
same,TP,"[…], time 7 day",5.8 g/dL
same,gamma-GTP,"[…], time 7 day",1.2 IU/L
same,ALP,"[…], time 14 day",1457.8 IU/L
same,ALT,"[…], time 14 day",44.8 IU/L
same,AST,"[…], time 14 day",59.8 IU/L
same,BUN,"[…], time 14 day",16.6 mg/dL
same,CRE,"[…], time 14 day",0.5 mg/dL
same,Ca,"[…], time 14 day",9.6 mg/dL
same,DBIL,"[…], time 14 day",0.064 mg/dL
same,GLC,"[…], time 14 day",200.8 mg/dL
same,K,"[…], time 14 day",3.6 meq/L
same,LDH,"[…], time 14 day",176.6 IU/L
same,Na,"[…], time 14 day",139.4 meq/L
same,PL,"[…], time 14 day",190.4 mg/dL
same,RALB,"[…], time 14 day",3.4 g/dL
same,TBIL,"[…], time 14 day",0.1 mg/dL
same,TC,"[…], time 14 day",163.4 mg/dL
same,TP,"[…], time 14 day",5.7 g/dL
same,gamma-GTP,"[…], time 14 day",1.6 IU/L
same,ALP,"[…], time 28 day",1315 IU/L
same,ALT,"[…], time 28 day",39.8 IU/L
same,AST,"[…], time 28 day",82 IU/L
same,BUN,"[…], time 28 day",15.5 mg/dL
same,CRE,"[…], time 28 day",0.5 mg/dL
same,Ca,"[…], time 28 day",9.4 mg/dL
same,DBIL,"[…], time 28 day",0.065 mg/dL
same,GLC,"[…], time 28 day",169 mg/dL
same,K,"[…], time 28 day",3.9 meq/L
same,LDH,"[…], time 28 day",184 IU/L
same,Na,"[…], time 28 day",139.8 meq/L
same,PL,"[…], time 28 day",177 mg/dL
same,RALB,"[…], time 28 day",3.3 g/dL
same,TBIL,"[…], time 28 day",0.1 mg/dL
same,TC,"[…], time 28 day",127.5 mg/dL
same,TG,"[…], time 28 day",26.5 mg/dL
same,TP,"[…], time 28 day",5.8 g/dL
same,gamma-GTP,"[…], time 28 day",1.2 IU/L
